Laboratory results taken from patent US20250230193A1, “CYCLIC COMPOUND HAVING SELECTIVE KRAS INHIBITORY EFFECT ON HRAS AND NRAS” (CHUGAI SEIYAKU KABUSHIKI KAISHA, priority 2022, published 2025).
Where a SMILES comes first, the peptide text is derived from it. Bridges are numbered along the chain shown (N, C = ends). [ ]: non-standard residue; d: D form. hPhe(3-Cl-4-CF3) = N[C@@H](CCc1ccc(C(F)(F)F)c(Cl)c1)C(=O)O; NPrPhe(4-CF3) = CCCN[C@@H](Cc1ccc(C(F)(F)F)cc1)C(=O)O; NMeGly(cPent) = CN[C@H](C(=O)O)C1CCCC1; Hyp = O=C(O)[C@@H]1C[C@@H](O)CN1; NMeD = CN[C@@H](CC(=O)O)C(=O)O; NMeL = CN[C@@H](CC(C)C)C(=O)O; NMeA = CN[C@@H](C)C(=O)O; Ac5c = NC1(C(=O)O)CCCC1; Aze = O=C(O)[C@@H]1CCN1; Sar = CNCC(=O)O

Experiments:
[1] = biological target: GDP-bound HRAS wild-type protein (Homo sapiens, UniProt P01112); assay: Binding to HRAS by surface plasmon resonance (SPR), Single Cycle Kinetics; settings: for HRAS/KRAS (ratio of KD value with respect to HRAS to KD value with respect to KRAS) / HRAS/KRAS (ratio of KD value for HRAS to KD value for KRAS): GDP-bound HRAS wild-type vs GDP-bound KRAS wild-type
Sequence of GDP-bound HRAS wild-type protein (P01112 whole entry): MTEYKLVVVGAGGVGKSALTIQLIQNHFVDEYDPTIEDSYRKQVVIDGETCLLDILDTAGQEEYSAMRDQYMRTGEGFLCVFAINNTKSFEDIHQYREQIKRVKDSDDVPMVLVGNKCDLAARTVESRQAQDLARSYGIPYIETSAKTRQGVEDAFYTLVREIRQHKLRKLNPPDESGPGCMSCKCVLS

[2] = biological target: GDP-bound NRAS wild-type protein (Homo sapiens, UniProt P01111); assay: Binding to NRAS by surface plasmon resonance (SPR), Single Cycle Kinetics; settings: for NRAS/KRAS (ratio of KD value with respect to NRAS to KD value with respect to KRAS) / NRAS/KRAS (ratio of KD value for NRAS to KD value for KRAS): GDP-bound NRAS wild-type vs GDP-bound KRAS wild-type
Sequence of GDP-bound NRAS wild-type protein (P01111 whole entry): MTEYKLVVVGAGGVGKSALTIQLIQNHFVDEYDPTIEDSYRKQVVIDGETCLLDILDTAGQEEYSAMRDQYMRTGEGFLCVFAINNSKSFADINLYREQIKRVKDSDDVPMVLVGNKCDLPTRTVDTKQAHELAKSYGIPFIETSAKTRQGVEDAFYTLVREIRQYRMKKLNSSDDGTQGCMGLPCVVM

With `CCOC[C@H]1C(=O)N[C@@H]([C@@H](C)CC)C(=O)N(C2CC2)CC(=O)N(C)[C@H]2C/C=C\CCN(C2=O)[C@@H](Cc2ccc(C(F)(F)F)cc2)C(=O)N(C)CC(=O)N[C@@H](CCc2ccc(C(F)(F)F)c(OC)c2)C(=O)N2C[C@H](OCC)C[C@H]2C(=O)N(C)C2(CCC2)C(=O)N(C)[C@@H](C(CC)CC)C(=O)N(C)[C@H](C(=O)N(C)C)CC(=O)N1C` [PP2315] as the compound, how does the “HRAS/KRAS (ratio of KD value with respect to HRAS to KD value with respect to KRAS)” value ([1]; SPR) read?
The value was “A (a compound having 10 or more and less than 20 is denoted as A)”.

And the “NRAS/KRAS (ratio of KD value with respect to NRAS to KD value with respect to KRAS)” value ([2]; SPR)?
The value was “A (a compound having 10 or more and less than 20 is denoted as A)”.

`CCC[C@H]1C(=O)N[C@@H]([C@@H](C)CC)C(=O)N(C)CC(=O)N(C)[C@H]2C/C=C\CCN(C2=O)[C@@H](Cc2ccc(C(F)F)cc2)C(=O)N(C)CC(=O)N[C@@H](CCc2ccc(Cl)c(Cl)c2)C(=O)N2C[C@H](OC(C)C)C[C@H]2C(=O)NC2(CC(C)(C)C2)C(=O)N(C)[C@@H](C(CC)CC)C(=O)N(C)[C@H](C(=O)N(C)C)CC(=O)N1C` [PP2535] was tested. Which “HRAS/KRAS (ratio of KD value with respect to GDP-bound HRAS wild-type protein to KD value with respect to KRAS)” value ([1]; KD ratio HRAS/KRAS, class symbols) did it give?
Its value is “A (a compound having 10 or more and less than 20 is denoted as A)”.

And the “NRAS/KRAS (ratio of KD value with respect to GDP-bound NRAS wild-type protein to KD value with respect to KRAS)” value ([2]; KD ratio NRAS/KRAS, class symbols)?
The value was “AA (a compound having 20 or more is denoted as AA)”.

What does the source list for `CCCN1C(=O)CN(C)C(=O)CNC(=O)[C@H]([C@@H](C)CC)NC(=O)[C@H](CC(C)C)N(C)C(=O)C[C@@H](C(=O)N(C)C)N(C)C(=O)[C@H](C2CCCC2)N(C)C(=O)C2(CCCC2)NC(=O)[C@@H]2C[C@@H](OCC)CN2C(=O)[C@H](CCc2ccc(C(F)(F)F)c(Cl)c2)NC(=O)CN(C)C(=O)[C@@H]1Cc1ccc(C(F)(F)F)cc1` [PP0421] ([NMeL]IG[Sar][NPrPhe(4-CF3)][Sar][hPhe(3-Cl-4-CF3)][Hyp](Et)[Ac5c][NMeGly(cPent)][NMeD]-NMe2; lactam N-11)?
HRAS/KRAS (ratio of KD value with respect to GDP-bound HRAS wild-type protein to KD value with respect to KRAS) ([1]; KD ratio HRAS/KRAS, SPR): C (A compound having a KD ratio of 0.1 or more and less than 3 is denoted as C); NRAS/KRAS (ratio of KD value with respect to GDP-bound NRAS wild-type protein to KD value with respect to KRAS) ([2]; KD ratio NRAS/KRAS, SPR): B (a compound having 3 or more and less than 10 is denoted as B)

With `CCO[C@@H]1C[C@H]2C(=O)NC3(CC(C)(C)C3)C(=O)N(C)[C@@H](C3CCCC3)C(=O)N(C)[C@H](C(=O)N(C)CC)CC(=O)N(C)[C@@H](CC3CC3)C(=O)N[C@@H]([C@@H](C)CC)C(=O)N(C)CC(=O)N(C)[C@H]3C/C=C\CCN(C3=O)[C@@H](Cc3ccc(C(F)(F)F)cc3)C(=O)N(C)CC(=O)N[C@@H](CCc3cc(F)c(C(F)(F)F)c(F)c3)C(=O)N2C1` [PP1648] as the compound, how does the “HRAS/KRAS (ratio of KD value for HRAS to KD value for KRAS)” value ([1]; KD ratio, SPR) read?
The value was “A (a compound having 10 or more and less than 20 is denoted as A)”.

And the “NRAS/KRAS (ratio of KD value for NRAS to KD value for KRAS)” value ([2]; KD ratio, SPR)?
Its value is “A (a compound having 10 or more and less than 20 is denoted as A)”.

How did the “HRAS/KRAS (ratio of KD value with respect to HRAS to KD value with respect to KRAS)” value ([1]; KD ratio, SPR) turn out when `CCO[C@@H]1C[C@H]2C(=O)NC3(CCC3)C(=O)N(C)[C@@H](CC(C)C)C(=O)N(C)[C@H](C(=O)N(C)C)CC(=O)N(C)[C@@H](CC)C(=O)N[C@@H]([C@@H](C)CC)C(=O)N(C)CC(=O)N(C)[C@H]3C/C=C\CCN(C3=O)[C@@H](Cc3ccc(C(F)(F)F)cc3)C(=O)N(C)CC(=O)N[C@@H](CCc3cc(F)c(C(F)(F)F)c(F)c3)C(=O)N2C1` [PP1089] was run?
The value was “A (a compound having 10 or more and less than 20 is denoted as A)”.

What about the “NRAS/KRAS (ratio of KD value with respect to NRAS to KD value with respect to KRAS)” value ([2]; KD ratio, SPR) of the same compound?
The value was “AA (a compound having 20 or more is denoted as AA)”.

What does the source list for `CCCN1C(=O)[C@@H]2CCN2C(=O)[C@H](C)N(C)C(=O)[C@H]([C@@H](C)CC)NC(=O)[C@H](CC(C)C)N(C)C(=O)C[C@@H](C(=O)N(C)C)NC(=O)[C@H](C2CCCC2)N(C)C(=O)C2(CCCC2)NC(=O)[C@@H]2CCCN2C(=O)[C@H](CCc2ccc(C(F)(F)F)c(Cl)c2)NC(=O)CN(C)C(=O)[C@@H]1Cc1ccc(C(F)(F)F)cc1` [PP0379] ([NMeL]I[NMeA][Aze][NPrPhe(4-CF3)][Sar][hPhe(3-Cl-4-CF3)]P[Ac5c][NMeGly(cPent)]D-NMe2; lactam N-11)?
HRAS/KRAS (ratio of KD for GDP-bound HRAS wild-type to KD for KRAS) ([1]; KD ratio HRAS/KRAS, SPR): B (a compound having 3 or more and less than 10 is denoted as B); NRAS/KRAS (ratio of KD for GDP-bound NRAS wild-type to KD for KRAS) ([2]; KD ratio NRAS/KRAS, SPR): C (A compound having a KD ratio of 0.1 or more and less than 3 is denoted as C)

What does the source list for `CC[C@H](C)[C@@H]1NC(=O)[C@H](C2CCC2)N(C)C(=O)C[C@@H](C(=O)N(C)C)N(C)C(=O)[C@H](C2CCCC2)N(C)C(=O)C2(CC(C)(C)C2)NC(=O)[C@@H]2C[C@H](C)CN2C(=O)[C@H](CCc2ccc(C(F)(F)F)c(OC)c2)NC(=O)CN(C)C(=O)[C@H](Cc2ccc(C(F)(F)F)cc2)N2CC/C=C\C[C@@H](C2=O)N(C)C(=O)CN(C)C1=O` [PP2011]?
HRAS/KRAS (ratio of KD value for HRAS to KD value for KRAS) ([1]; KD ratio, SPR): A (a compound having 10 or more and less than 20 is denoted as A); NRAS/KRAS (ratio of KD value for NRAS to KD value for KRAS) ([2]; KD ratio, SPR): A (a compound having 10 or more and less than 20 is denoted as A)
